Laboratory results from patent US20070054887A1, “Methods for treating bladder dysfunction” (BioXell S.p.A, priority 2003, published 2007).
Values joined by “and” are separate entries in the source; they are usually repeats but may differ in a detail not shown here. Equal values may be shown once. Read-outs that look alike come from different tables or passages of the source.

Experiments:
[1] = maximum tolerated dose (MTD) in rats; type: in vivo
Source text: The maximum tolerated dose (MTD) in rats is also listed for each compound.

human bladder cells = assay: inhibition of basal human bladder cell growth; type: cell-based; conditions: for IC50: Homo sapiens
BPH cells = conditions: previously found; also counteracted mitogenic activity of KGF and IGFI; cited from earlier work
[2] = tested on: rats with CYP-induced cystitis; assay: cyclophosphamide (CYP) induced chronic cystitis in rats: conscious cystometry; type: in vivo, Wistar rats; design: amplitude of NVBC (amplitude of non-voiding bladder contraction): unit not given here
Source text: The rat model of chemical cystitis induced by intraperitoneal injection of CYP has been well accepted. CYP is used in clinical practice in the treatment of a number of malignant tumors. One of its metabolites, acrolein, is excreted in urine in large concentrations causing hemorrhagic cystitis associated with symptoms of urinary frequency, urgency and pelvic pain. The inflammatory process is characterized by changes in gross histology of bladder, increase in number and distribution of inflammatory cell infiltrates (mast cells, macrophage, PMNs), cyclo-oxygenase-2 expression and prostaglandin production, growth factor and cytokine production. The rat model of chemical cystitis closely resembles interstitial cystitis, a chronic, painful urinary bladder syndrome and has been used for the testing of therapeutic agents in the past.
This model was used to test the effects of 1,25-dihydroxyvitamin D3 analogue in rats with CYP-induced cystitis. The effects of the treatment on the cystometric parameters in a conscious freely moving rat with CYP-induced cystitis were monitored. The following cystometric parameters were recorded in each animal:
Animals: Wistar rats weighing 125-175 g were used. […] Following recovery all animals received three intraperitoneal injections of CYP and subsequently were divided into the treatment and sham control groups.
Treatment group: Rats treated with oral 1,25-dihydroxyvitamin D3 analogue 1,3-di-O-acetyl-1,25-dihydroxy-16,23Z-diene-26,27-hexafluoro-19-nor-cholecalciferol (“Compound C”) for 14 days (daily dose of 0.1 μg/kg) [drawing 138]
Cystometry was performed 24 hours following the last dose of the drug or vehiculum on awake freely moving animals.
A lower midline abdominal incision was performed under general inhalation anesthesia (isoflurine with O2) and polyethylene tubing (PE-50, Clay Adams, Parsippany, N.J.) with the end flared by heat was inserted into the dome of the bladder and secured in place with a 6-0 prolene purse string suture. The distal end of the tubing was heat-sealed, tunneled subcutaneously and externalized at the back of the neck, out of the animal's reach. Abdominal and neck incisions were closed with 4-0 nylon sutures.
Following recovery (5 days) subject animals underwent three intraperitoneal injections of CYP (Sigma Chemical, St. Louis, Mo.; 75 mg/kg each, intraperitoneal) over the period of nine days. On the tenth day following the first CYP injection the sham control animals received the vehicle only, whereas the experimental group were treated with the 1,25-dihydroxyvitamin D3 analogue 1,3-di-O-acetyl-1,25-dihydroxy-16,23Z-diene-26,27-hexafluoro-19-nor-cholecalciferol “Compound C” (delivered using gavage). Two weeks following the initiation of the treatment animals underwent a conscious cystometrogram to assess the function of the urinary bladder.
An animal was placed unrestrained in a cage and the catheter was connected via a T-tube to a pressure transducer (Grass® Model PT300, West Warwick, R.I.) and microinjection pump (Harvard Apparatus 22, South Natick, Mass.). A 0.9% saline solution was infused at room temperature into the bladder at a rate of 10 ml/h. Intravesical pressure was recorded continuously using a Neurodata Acquisition System (Grass® Model 15, Astro-Med, Inc, West Warwick, R.I.). At least three reproducible micturition cycles were recorded after the initial stabilization period of 25-30 min.

[3] = drug treated animals versus vehicle, 0.1 μg/kg oral 14 days
[4] = oral 0.1 μg/kg daily for 14 days, individual rats, three micturition cycles each

Row | SMILES | MTD ([1]; rat, in vivo, read-out: MTD) | IC50 (human bladder cells) | also measured
1 | C=C1/C(=C\C=C2/CCC[C@]3(C)C(C4(CC#CC(O)(C(F)(F)F)C(F)(F)F)CC4)=CCC23)CC(O)C[C@@H]1O (stereo partly drawn) [1α,25-Dihydroxy-16-ene-20-cyclopropyl-23,24-yne-26,27 hexafluoro cholecalciferol] | 0.3 µg/kg | 3550 µM | 
2 | C=C1/C(=C\C=C2/CCC[C@]3(C)C(C(C)C/C=C/C(C)(C)O)=CCC23)CC(OC(C)=O)C[C@@H]1OC(C)=O (stereo partly shown) [1,3-Di-O-acetyl-1,25-dihydroxy-16,23E-diene-cholecalciferol] | 3 µg/kg | 4.17e-06 µM | 
3 | C=C1CC[C@H](O)C/C1=C/C=C1\CCC[C@]2(C)[C@@H]([C@H](C)CCCC(C)C)CC[C@@H]12 [vitamin D3, reference compound] |  |  | BPH cell proliferation (BPH cells): inhibited
4 | C=C1/C(=C\C=C2/CCC[C@]3(C)C(C4(C/C=C/C(O)(C(F)(F)F)C(F)(F)F)CC4)=CCC23)CC(O)C[C@@H]1O (stereo partly drawn) [1α,25-Dihydroxy-16-ene-20-cyclopropyl-23,24-E-ene-26,27-hexafluoro-cholecalciferol] | 0.3 µg/kg | 1.58e-05 µM | 
5 | CC(=O)OC1C/C(=C/C=C2\CCC[C@]3(C)C(C(C)C/C=C\C(O)(C(F)(F)F)C(F)(F)F)=CCC23)C[C@@H](OC(C)=O)C1 (stereo partly shown) [Compound C, 1,3-di-O-acetyl-1,25-dihydroxy-16,23Z-diene-26,27-hexafluoro-19-nor-cholecalciferol] | 0.1 µg/kg | 0.0398 µM | amplitude of non-voiding bladder contractions, change versus control [2, 3]: Dramatic reductions; bladder capacity, change versus control [2, 3]: did not result in a change; filling pressure, change versus control [2, 3]: statistically significant reductions; number of non-voiding bladder contractions, change versus control [2, 3]: Dramatic reductions; threshold pressure, change versus control [2, 3]: statistically significant reductions; Bl. Cap. (bladder capacity) ([2]; oral 0.1 μg/kg daily for 14 days, individual rats RB7, RB13, RB15, three micturition cycles each): 1.9 ml and 1.3 ml (2×) and 2.5 ml and 1.5 ml and 0.7 ml (2×) and 0.8 ml and 1.4 ml; # of NVBC (number of non-voiding bladder contractions) [2, 4]: 4 and 8 (2×) and 0 (6×); FP (filling pressure) [2, 4]: 15 cmH2O and 14 cmH2O (3×) and 12 cmH2O and 11 cmH2O and 10 cmH2O and 13 cmH2O (2×); MP (micturition pressure) [2, 4]: 105 cmH2O and 97 cmH2O (2×) and 90 cmH2O and 100 cmH2O and 108 cmH2O and 98 cmH2O and 101 cmH2O and 104 cmH2O; TP (threshold pressure) [2, 4]: 16 cmH2O and 17 cmH2O and 14 cmH2O (4×) and 12 cmH2O and 11 cmH2O and 15 cmH2O; amplitude of NVBC (amplitude of non-voiding bladder contraction) [2, 4]: 10 and 11 (2×) and 0 (6×)
6 | CC(C)(O)CCCC(CCCC(C)(C)O)[C@H]1CC[C@H]2/C(=C/C=C3C[C@@H](O)C[C@H](O)C3)CCC[C@]12C [1,25-dihydroxy-21-(3-hydroxy-3-methylbutyl)-19-nor-cholecalciferol] |  | 9.77 µM | 
7 | CC(=O)OC1C/C(=C/C=C2\CCC[C@@]3(C)C2CCC3C2(CC#CC(O)(C(F)(F)F)C(F)(F)F)CC2)C[C@@H](OC(C)=O)C1 (stereo partly shown) [1,3-Di-O-acetyl-1,25-dihydroxy-20-cyclopropyl-23-yne-26,27-hexafluoro-19-nor-cholecalciferol] | 10 µg/kg | 0.0012 µM | 
8 | CC(=O)O[C@@H]1CC(=C/C=C2\CCC[C@]3(C)C([C@H](C)CCC(=O)C(C)(C)O)=CCC23)C[C@@H](OC(C)=O)C1 (stereo partly shown) [1,3-O-Diacetyl-1,25-Dihydroxy-16-ene-24-Keto-19-nor-Cholecalciferol] | 300 µg/kg | 0.617 µM | 
9 | C=C1/C(=C\C=C2/CCC[C@@]3(C)C2CCC3C(CCCC(C)(C)O)CCC(O)C(C)(C)O)C[C@@H](O)C[C@@H]1O (stereo partly drawn) [1,25-Dihydroxy-21-(2R,3-dihydroxy-3-methyl-butyl)-20R-Cholecalciferol] | 30 µg/kg | 24 µM | 
10 | C=C1/C(=C\C=C2/CCC[C@]3(C)C(C4(CCCC(C)(C)O)CC4)=CCC23)CC(O)C[C@@H]1O (stereo partly drawn) [1α,25-Dihydroxy-16-ene-20-cyclopropyl-cholecalciferol] | 1 µg/kg | 0.017 µM | 
11 | C=C1C(=CC=C2CCCC3(C)C2CCC3C2(CC#CC(C)(C)O)CC2)CC(OC(C)=O)CC1OC(C)=O (stereo not shown) [1,3-Di-O-acetyl-1,25-dihydroxy-20-cyclopropyl-23-yne-cholecalciferol] |  |  | MTD [1]: 30 µg/kg; −Log IC50 (human bladder cells; basal human bladder cell growth, cells not stimulated with testosterone): >2
12 | C=C1/C(=C\C=C2/CCC[C@]3(C)C(C(C)CCCC(C)(C)O)=CCC23)CC(OC(C)=O)C[C@@H]1OC(C)=O (stereo partly shown) [1,3-Di-O-acetyl-1,25-dihydroxy-16-ene-cholecalciferol] | 1 µg/kg | 0.000224 µM | 
13 | CC(=O)OC1C/C(=C/C=C2\CCC[C@@]3(C)C2CCC3C2(C/C=C\C(O)(C(F)(F)F)C(F)(F)F)CC2)C[C@@H](OC(C)=O)C1 (stereo partly shown) [1,3-Di-O-acetyl-1,25-dihydroxy-20-cyclopropyl-23Z-ene-26,27-hexafluoro-19-nor-cholecalciferol] | 10 µg/kg | 0.2 µM | 
14 | C=C1/C(=C\C=C2/CCC[C@]3(C)C(C4(C/C=C\C(O)(C(F)(F)F)C(F)(F)F)CC4)=CCC23)CC(O)C[C@@H]1O (stereo partly drawn) [1α,25-Dihydroxy-16-ene-20-cyclopropyl-23,24-Z-ene-26,27-hexafluoro-cholecalciferol] | 1 µg/kg | 0.0794 µM | 
15 | CC(=O)OC1C/C(=C/C=C2\CCC[C@]3(C)C(C(C)CCCC(C)(C)O)=CCC23)C[C@@H](OC(C)=O)C1 (stereo partly shown) [1,3-Di-O-acetyl-1,25-dihydroxy-16-ene-19-nor-cholecalciferol] | 3 µg/kg | 0.000631 µM | 
16 | C=C1/C(=C\C=C2/CCC[C@@]3(C)C2CCC3C2(CCCC(C)(C)O)CC2)CC(OC(C)=O)C[C@@H]1OC(C)=O (stereo partly shown) [1,3-Di-O-acetyl-1,25-dihydroxy-20-cyclopropyl-cholecalciferol] | 30 µg/kg | 0.398 µM | 
17 | C=C1/C(=C\C=C2/CCC[C@]3(C)C(C(C)CC#CC(C)(C)O)=CCC23)CC(OC(C)=O)C[C@@H]1OC(C)=O (stereo partly shown) [1,3-Di-O-acetyl-1,25-dihydroxy-16-ene-23-yne-cholecalciferol] | 10 µg/kg | 5.01e-05 µM | 
18 | C=C1/C(=C\C=C2/CCC[C@]3(C)C(C(C)CC#CC(O)(C(F)(F)F)C(F)(F)F)=CCC23)CC(OC(C)=O)C[C@@H]1OC(C)=O (stereo partly shown) [1,3-Di-O-acetyl-1,25-dihydroxy-16-ene-23-yne-26,27-hexafluoro-cholecalciferol] | 10 µg/kg | 0.002 µM | 
19 | CC(=O)OC1C/C(=C/C=C2\CCC[C@@]3(C)C2CCC3C2(CC#CC(OC(C)=O)(C(F)(F)F)C(F)(F)F)CC2)C[C@@H](OC(C)=O)C1 (stereo partly shown) [1,3,25-Tri-O-acetyl-1,25-dihydroxy-20-cyclopropyl-23-yne-26,27-hexafluoro-19-nor-cholecalciferol] | 10 µg/kg | 0.0398 µM | 
20 | [2H]C([2H])([2H])C(O)(CCC[C@@H](CC#CC(O)(C(F)(F)F)C(F)(F)F)C1CCC2/C(=C/C=C3C[C@@H](O)C[C@H](O)C3)CCC[C@@]21C)C([2H])([2H])[2H] (stereo partly drawn) [1,25-Dihydroxy-21(3-hydroxy-3-trifluoromethyl-4-trifluoro-butynyl)-26,27-hexadeutero-19-nor-20S-cholecalciferol] | 0.2 µg/kg | 31600 µM | 
21 | CC(=O)OC1C/C(=C/C=C2\CCC[C@]3(C)C(C(C)CC#CC(C)(C)O)=CCC23)C[C@@H](OC(C)=O)C1 (stereo partly shown) [1,3-Di-O-Acetyl-1,25-dihydroxy-16-ene-23-yne-19-nor-cholecalciferol] | 30 µg/kg | 186 µM | 
22 | C=C1/C(=C\C=C2/CCC[C@@]3(C)C2CCC3C(C)CC#CC(C)(C)O)CC(OC(C)=O)C[C@@H]1OC(C)=O (stereo partly shown) [1,3-Di-O-acetyl-1,25-dihydroxy-23-yne-cholecalciferol] | 1 µg/kg | < 10000 µM | 
23 | CC(=O)OC1C/C(=C/C=C2\CCC[C@@]3(C)C2CCC3C2(C/C=C/C(O)(C(F)(F)F)C(F)(F)F)CC2)C[C@@H](OC(C)=O)C1 (stereo partly shown) [1,3-Di-O-acetyl-1,25-dihydroxy-20-cyclopropyl-23E-ene-26,27-hexafluoro-19-nor-cholecalciferol] | 0.3 µg/kg | 0.00158 µM | 
